Test results as given in PubChem BioAssay AID2060909 (Molecular Pharmacology Branch, DTP, NCI, 2025).

System: 362531-283-R-J2-PDC complex spheroid viability
Assay: Anticancer human tumor 362531-283-R-J2-PDC patient-derived colon adenocarcinoma cell line growth inhibition [RAS]
Details: for viability, T/C: stronger effect = lower value
In short: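 Multi-cell-type spheroids: tumor cells plus HUVEC endothelial cells and mesenchymal stem cells. RAS-pathway inhibitors were combined with targeted agents, each dosed in half-log steps down from clinical Cmax, or from 10 microM when Cmax was unknown.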

[1] = curve of first compound, second compound 0.00316 µM
[2] = curve of first compound, second compound 0.01 µM
[3] = curve of first compound, second compound 0.0316 µM
[4] = curve of first compound, second compound 0.1 µM
[5] = curve of first compound, second compound 0.316 µM
[6] = curve of first compound, second compound 1 µM
[7] = second compound 0.00316 µM, first compound 0.0316 µM
[8] = second compound 0.00316 µM, first compound 0.1 µM
[9] = second compound 0.00316 µM, first compound 0.316 µM
[10] = second compound 0.00316 µM, first compound 1 µM
[11] = second compound 0.01 µM, first compound 0.0316 µM
[12] = second compound 0.01 µM, first compound 0.1 µM
[13] = second compound 0.01 µM, first compound 0.316 µM
[14] = second compound 0.01 µM, first compound 1 µM
[15] = second compound 0.0316 µM, first compound 0.0316 µM
[16] = second compound 0.0316 µM, first compound 0.1 µM
[17] = second compound 0.0316 µM, first compound 0.316 µM
[18] = second compound 0.0316 µM, first compound 1 µM
[19] = second compound 0.1 µM, first compound 0.0316 µM
[20] = second compound 0.1 µM, first compound 0.1 µM
[21] = second compound 0.1 µM, first compound 0.316 µM
[22] = second compound 0.1 µM, first compound 1 µM
[23] = second compound 0.316 µM, first compound 0.0316 µM
[24] = second compound 0.316 µM, first compound 0.1 µM
[25] = second compound 0.316 µM, first compound 0.316 µM
[26] = second compound 0.316 µM, first compound 1 µM
[27] = second compound 1 µM, first compound 0.0316 µM
[28] = second compound 1 µM, first compound 0.1 µM
[29] = second compound 1 µM, first compound 0.316 µM
[30] = second compound 1 µM, first compound 1 µM
[31] = second compound 0.0316 µM, first compound 3.16 µM
[32] = second compound 0.0316 µM, first compound 10 µM
[33] = second compound 0.1 µM, first compound 3.16 µM
[34] = second compound 0.1 µM, first compound 10 µM
[35] = second compound 0.316 µM, first compound 3.16 µM
[36] = second compound 0.316 µM, first compound 10 µM
[37] = second compound 1 µM, first compound 3.16 µM
[38] = second compound 1 µM, first compound 10 µM
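Note: spheroids exposed to the agents for 7 days before readout.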
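Throughout, for viability, T/C: luminescence viability as percent of DMSO vehicle control wells.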

Compound `Nc1ccn(C2OC(CO)C(O)C2(F)F)c(=O)n1` (stereo not drawn) + C=CC(=O)N1CCN(c2nc(OCC3CCCN3C)nc3c(F)c(-c4nc(N)cc(C)c4C(F)(F)F)c(Cl)cc23)C(C)C1 has an IC50 [1] of 129 nM, an IC50 [2] of 169 nM and an IC50 [3] of 154 nM. The IC50 [4] was 130 nM, the IC50 [5] was 180 nM and the IC50 [6] was 144 nM. The viability, T/C (second compound 0.00316 µM, first compound 0.00316 µM) was 107%, the viability, T/C (second compound 0.00316 µM, first compound 0.01 µM) was 100% and the viability, T/C [7] was 81.2%. The viability, T/C [8] was 61.8%, the viability, T/C [9] was 22.7% and the viability, T/C [10] was 29.7%. The viability, T/C (second compound 0.01 µM, first compound 0.00316 µM) was 93.5%, the viability, T/C (second compound 0.01 µM, first compound 0.01 µM) was 95.3% and the viability, T/C [11] was 80.9%. It also gave a viability, T/C [12] of 70%, a viability, T/C [13] of 21.7% and a viability, T/C [14] of 30.7%. It also gave a viability, T/C (second compound 0.0316 µM, first compound 0.00316 µM) of 93.5%, a viability, T/C (second compound 0.0316 µM, first compound 0.01 µM) of 91% and a viability, T/C [15] of 87.7%. It also gave a viability, T/C [16] of 64.9%, a viability, T/C [17] of 23.6% and a viability, T/C [18] of 27%. The viability, T/C (second compound 0.1 µM, first compound 0.00316 µM) was 94.9%, the viability, T/C (second compound 0.1 µM, first compound 0.01 µM) was 94.9% and the viability, T/C [19] was 77.4%. The viability, T/C [20] was 61%, the viability, T/C [21] was 23.6% and the viability, T/C [22] was 31.7%. For the same compound, the viability, T/C (second compound 0.316 µM, first compound 0.00316 µM) was 93.8%, the viability, T/C (second compound 0.316 µM, first compound 0.01 µM) was 97.1% and the viability, T/C [23] was 89.4%. For the same compound, the viability, T/C [24] was 75.7%, the viability, T/C [25] was 23.3% and the viability, T/C [26] was 27.6%. The viability, T/C (second compound 1 µM, first compound 0.00316 µM) was 105%, the viability, T/C (second compound 1 µM, first compound 0.01 µM) was 97.9% and the viability, T/C [27] was 78.9%. The viability, T/C [28] was 65.2%, the viability, T/C [29] was 25.1% and the viability, T/C [30] was 29.7%.

For `CC(=O)OC12COC1CC(O)C1(C)C(=O)C(O)C3=C(C)C(OC(=O)C(O)C(NC(=O)OC(C)(C)C)c4ccccc4)CC(O)(C(OC(=O)c4ccccc4)C21)C3(C)C` (stereo not drawn) + C=CC(=O)N1CCN(c2nc(OCC3CCCN3C)nc3c(F)c(-c4nc(N)cc(C)c4C(F)(F)F)c(Cl)cc23)C(C)C1, the IC50 [1] was 206 nM, the IC50 [2] was 207 nM and the IC50 [3] was 212 nM. It also gave an IC50 [4] of 211 nM, an IC50 [5] of 194 nM and an IC50 [6] of 219 nM. The viability, T/C [7] was 96.7%, the viability, T/C [8] was 87.7% and the viability, T/C [9] was 24.6%. For the same compound, the viability, T/C [10] was 20.6%, the viability, T/C (second compound 0.00316 µM, first compound 3.16 µM) was 25.6% and the viability, T/C (second compound 0.00316 µM, first compound 10 µM) was 39.1%. It also gave a viability, T/C [11] of 106%, a viability, T/C [12] of 87.8% and a viability, T/C [13] of 24.2%. For the same compound, the viability, T/C [14] was 22.8%, the viability, T/C (second compound 0.01 µM, first compound 3.16 µM) was 25.5% and the viability, T/C (second compound 0.01 µM, first compound 10 µM) was 39.8%. It also gave a viability, T/C [15] of 99.4%, a viability, T/C [16] of 94.3% and a viability, T/C [17] of 21.5%. For the same compound, the viability, T/C [18] was 22.2%, the viability, T/C [31] was 25.2% and the viability, T/C [32] was 37.3%. The viability, T/C [19] was 97.4%, the viability, T/C [20] was 89.1% and the viability, T/C [21] was 27%. For the same compound, the viability, T/C [22] was 20.1%, the viability, T/C [33] was 27.3% and the viability, T/C [34] was 40.2%. The viability, T/C [23] was 107%, the viability, T/C [24] was 76.4% and the viability, T/C [25] was 25.3%. For the same compound, the viability, T/C [26] was 18%, the viability, T/C [35] was 34.6% and the viability, T/C [36] was 44.1%. It also gave a viability, T/C [27] of 106%, a viability, T/C [28] of 86.4% and a viability, T/C [29] of 27.3%. For the same compound, the viability, T/C [30] was 23.4%, the viability, T/C [37] was 35.1% and the viability, T/C [38] was 45.5%.

In the case of `CC(=O)OC12COC1CC(O)C1(C)C(=O)C(O)C3=C(C)C(OC(=O)C(O)C(NC(=O)OC(C)(C)C)c4ccccc4)CC(O)(C(OC(=O)c4ccccc4)C21)C3(C)C` (stereo not drawn), the viability, T/C (compound 0.0316 µM) is reported as 101% [middle of 4 runs], the viability, T/C (compound 0.1 µM) is reported as 90.8% [middle of 4 runs] and the viability, T/C (compound 0.316 µM) is reported as 32.6% [middle of 4 runs]. The viability, T/C (compound 1 µM) was 21.6% [middle of 4 runs], the viability, T/C (compound 3.16 µM) was 27.5% [middle of 4 runs] and the viability, T/C (compound 10 µM) was 36% [middle of 4 runs]. The IC50 (curve of compound) was 226 nM [middle of 4 runs].

`CCC(CC)c1cc(NC2CCC(N)C2)n2nccc2n1` (stereo not drawn) + C#Cc1c(F)ccc2cc(O)cc(-c3ncc4c(N5CC6CCC(C5)N6)nc(OCC56CCCN5CC(F)C6)nc4c3F)c12 was tested, and the IC50 [3] was 4960 nM, the IC50 [4] was 4360 nM and the IC50 [5] was 5070 nM. It also gave an IC50 [6] of 1820 nM, an IC50 (curve of first compound, second compound 3.16 µM) of 1500 nM and an IC50 (curve of first compound, second compound 10 µM) of 338 nM. It also gave a viability, T/C [15] of 96.9%, a viability, T/C [16] of 107% and a viability, T/C [17] of 99.9%. The viability, T/C [18] was 105%, the viability, T/C [31] was 79% and the viability, T/C [32] was 4.8%. It also gave a viability, T/C [19] of 105%, a viability, T/C [20] of 98.8% and a viability, T/C [21] of 101%. For the same compound, the viability, T/C [22] was 88%, the viability, T/C [33] was 70% and the viability, T/C [34] was 3.26%. It also gave a viability, T/C [23] of 117%, a viability, T/C [24] of 96.9% and a viability, T/C [25] of 89.5%. It also gave a viability, T/C [26] of 83.3%, a viability, T/C [35] of 87.2% and a viability, T/C [36] of 2.95%. It also gave a viability, T/C [27] of 80.4%, a viability, T/C [28] of 88.3% and a viability, T/C [29] of 82.2%. For the same compound, the viability, T/C [30] was 82.9%, the viability, T/C [37] was 19.8% and the viability, T/C [38] was 4.12%. The viability, T/C (second compound 3.16 µM, first compound 0.0316 µM) was 72.4%, the viability, T/C (second compound 3.16 µM, first compound 0.1 µM) was 76.3% and the viability, T/C (second compound 3.16 µM, first compound 0.316 µM) was 68.1%. It also gave a viability, T/C (second compound 3.16 µM, first compound 1 µM) of 79.2%, a viability, T/C (second compound 3.16 µM, first compound 3.16 µM) of 5.75% and a viability, T/C (second compound 3.16 µM, first compound 10 µM) of 3.27%. The viability, T/C (second compound 10 µM, first compound 0.0316 µM) was 44.2%, the viability, T/C (second compound 10 µM, first compound 0.1 µM) was 49.4% and the viability, T/C (second compound 10 µM, first compound 0.316 µM) was 58.1%. For the same compound, the viability, T/C (second compound 10 µM, first compound 1 µM) was 36.2%, the viability, T/C (second compound 10 µM, first compound 3.16 µM) was 7.13% and the viability, T/C (second compound 10 µM, first compound 10 µM) was 4.45%.
